Data published in patent US8580526B2, “Methods of using GPR119 receptor to identify compounds which stimulate glucose-dependent insulinotropic peptide secretion” (Arena Pharmaceuticals, Inc., priority 2006, dated 2013).

Columns and labels:
GPR119 [1] = target: T1, GPR119 (Mus musculus, UniProt Q7TQP3); assay: Effect of oral GPR119 agonist on blood GIP level in GPR119-deficient (knockout) mice compared to wild-type mice, rodent GIP ELISA; assay type: in vivo, GPR119-deficient male mice and wild-type littermates; design: endogenous in cells; host or cells: whole animal: GPR119-deficient male mice and wild-type littermates, oral dosing; settings: 20 mg/kg per orally, FIG. 2A
T1 sequence (Q7TQP3 1-335): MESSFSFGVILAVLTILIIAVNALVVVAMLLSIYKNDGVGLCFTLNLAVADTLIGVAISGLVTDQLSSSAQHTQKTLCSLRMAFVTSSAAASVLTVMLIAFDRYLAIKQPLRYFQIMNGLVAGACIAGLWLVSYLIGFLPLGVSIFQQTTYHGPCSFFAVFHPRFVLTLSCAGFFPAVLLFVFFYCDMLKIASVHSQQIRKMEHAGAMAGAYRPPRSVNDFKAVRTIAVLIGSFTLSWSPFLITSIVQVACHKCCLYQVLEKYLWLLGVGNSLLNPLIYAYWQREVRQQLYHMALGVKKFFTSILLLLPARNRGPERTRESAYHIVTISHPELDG
Procedure: A. GPR119-deficient male mice and wild-type littermates were fasted for 18 hours. Mice were administered per orally with vehicle (PET; 80% PEG400, 10% ethanol, 10% Tween80) or with a GPR119 agonist in accordance with the present invention (Compound 1; (2-Fluoro-4-methanesulfonyl-phenyl)-{6-[4-(3-isopropyl-[1,2,4]oxadiazol-5-yl)-piperidin-1-yl]-5-nitro-pyrimidin-4-yl}-amine) at 20 mg/kg, as indicated (n=5). Thirty minutes after treatment, blood (100 microliter) was collected via retro orbital vein of the eye (time 0) followed by a glucose bolus at 3 g/kg (per orally). Five minutes after I delivering glucose, another blood sample (100 microliter) was collected (time 5 minutes). Plasma were collected after centrifugation and GIP levels were determined by using a rodent GIP ELISA kit purchased from Linco Research Laboratory [Rat/Mouse Gastric Inhibitory Polypeptide (Total) ELISA Catalog #EZRMGIP-55K], following instructions provided by the supplier. […]
B. GPR119-deficient male mice and wild-type littermates were fasted for 18 hours. […] Plasma were collected after centrifugation and GIP levels were determined by using a rodent GIP ELISA kit purchased from Linco Research Laboratory [Rat/Mouse Gastric Inhibitory Polypeptide (Total) ELISA Catalog #EZRMGIP-55K], following instructions provided by the supplier. […]

GPR119 [2] = target: T1, GPR119; assay: Pharmacodynamic analysis of effect of oral GPR119 agonist on blood (plasma total) GIP level in wild-type mice, rodent GIP ELISA; assay type: in vivo, C57blk/6 male mice; design: Effect of Administration of GPR119 Agonist on Blood GIP Level in Wild-Type Mice; endogenous in cells; host or cells: whole animal: C57blk/6 male mice, oral dosing; settings: 20 mg/kg per orally, 30 min before glucose bolus 3 g/kg, FIG. 1A
Procedure: A. C57blk/6 male mice were fasted for 18 hours, and randomly assigned into fourteen groups with n=6 for each group. Mice were administered per orally with vehicle (PET; 80% PEG400, 10% ethanol, 10% Tween80) or with a GPR119 agonist in accordance with the present invention (Compound 1; (2-Fluoro-4-methanesulfonyl-phenyl)-{6-[4-(3-isopropyl-1,2,4]oxadiazol-5-yl)-piperidin-1-yl]-5-nitro-pyrimidin-4-yl}-amine) at 20 mg/kg, as indicated in FIG. 1A. Thirty minutes after treatment, a glucose bolus at 3 g/kg were delivered per orally, and plasma were collected at 0 (no glucose bolus), 2, 5, 10, 20, 40 and 60 minutes after glucose bolus. Plasma GIP levels were determined by using a rodent GIP ELISA kit purchased from Linco Research Laboratory [Rat/Mouse Gastric Inhibitory Polypeptide (Total) ELISA Catalog #EZRMGIP-55K], following instructions provided by the supplier. […]
B. C57blk/6 male mice were fasted for 18 hours, and randomly assigned into fourteen groups with n=6 for each group. […] Plasma GIP levels were determined by using a rodent GIP ELISA kit purchased from Linco Research Laboratory [Rat/Mouse Gastric Inhibitory Polypeptide (Total) ELISA Catalog #EZRMGIP-55K], following instructions provided by the supplier. […] Mean values of GIP concentration were calculated based on results with six mice in each group and shown as mean±SEM. […]

## CC(C)c1noc(C2CCN(c3ncnc(Nc4ccc(S(C)(=O)=O)cc4F)c3[N+](=O)[O-])CC2)n1 [Compound 1, (2-Fluoro-4-methanesulfonyl-phenyl)-{6-[4-(3-isopropyl-[1,2,4]oxadiazol-5-yl)-piperidin-1-yl]-5-nitro-pyrimidin-4-yl}-amine]
GPR119 [1]; GPR119-deficient vs wild-type mice, time 0 and 5 min after glucose bolus 3 g/kg
  dependence on GPR119 of the increase of glucose-independent and glucose-dependent level of GIP in the blood: functional GPR119 receptor was necessary
GPR119 [1]; blood 30 min after treatment (time 0) and 5 min after glucose bolus 3 g/kg
  plasma total GIP in wild-type mice: stimulated plasma total GIP in the wild-type mice
GPR119 [2]; plasma at 0 (no glucose bolus) to 60 min
  glucose-dependent and glucose-independent level of GIP in the blood: increased both a glucose-dependent and a glucose-independent level of GIP
GPR119 [2]; plasma at 0 (no glucose bolus), 2, 5, 10, 20, 40, 60 min, vs vehicle PET
  plasma total GIP: stimulated plasma total GIP
